The results in this text go back to PubChem BioAssay AID330 (DTP/NCI, 2004).

In the assay the test system is P388 leukemia ip, CD2F1 mice, survival T/C. Put plainly: NCI In Vivo Anticancer Drug Screen. Data for tumor model P388 Leukemia (intraperitoneal) in CD2F1 (CDF1) mice. The following applies: endpoint: median survival time, higher = longer survival. Put shortly: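 Mice carrying the transplanted tumor received test compound or vehicle. Survival was recorded in each group, and the value is the treated-group measurement divided by that of the vehicle-treated control group.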

The mark [1] stands for this setting: dose: 60.0 mg/kg/injection, schedule: Q01DX005 (ip), vehicle: saline with Tween-80.
Where [2] appears, read: dose: 120.0 mg/kg/injection, schedule: Q01DX005 (ip), vehicle: saline with Tween-80.
Setting [3] is: dose: 240.0 mg/kg/injection, schedule: Q01DX005 (ip), vehicle: saline with Tween-80.
Setting [4] is: dose: 100.0 mg/kg/injection, schedule: Q04DX003 (ip), vehicle: Klucel (hydroxypropylcellulose) (HPC).
The mark [5] stands for this setting: dose: 200.0 mg/kg/injection, schedule: Q04DX003 (ip), vehicle: Klucel (hydroxypropylcellulose) (HPC).
[6] abbreviates: dose: 400.0 mg/kg/injection, schedule: Q04DX003 (ip), vehicle: Klucel (hydroxypropylcellulose) (HPC).
Setting [7] is: dose: 50.0 mg/kg/injection, schedule: Q01DX009 (ip), vehicle: saline with Tween-80.
Where [8] appears, read: dose: 100.0 mg/kg/injection, schedule: Q01DX009 (ip), vehicle: saline with Tween-80.
[9] abbreviates: dose: 100.0 mg/kg/injection, schedule: Q01DX009 (ip), vehicle: saline.
Setting [10] is: dose: 200.0 mg/kg/injection, schedule: Q01DX009 (ip), vehicle: saline with Tween-80.
The mark [11] stands for this setting: dose: 200.0 mg/kg/injection, schedule: Q01DX009 (ip), vehicle: saline.
The mark [12] stands for this setting: dose: 6.25 mg/kg/injection, schedule: Q01DX009 (ip), vehicle: saline.
The mark [13] stands for this setting: dose: 12.5 mg/kg/injection, schedule: Q01DX009 (ip), vehicle: saline.
[14] abbreviates: dose: 25.0 mg/kg/injection, schedule: Q01DX009 (ip), vehicle: saline.

Each structure is given as a SMILES string. Values joined by “and” are separate entries in the source; they are usually repeats but may differ in a detail not shown here. Equal values may be shown once. Inconclusive results and toxic doses are left out.

In the case of `C=C1CCCC2(C)C(OC(C)=O)C=C3C(C)(CCC3(O)C(C)C)CC12O` (centres undefined), the T/C (dose: 0.5 mg/kg/injection, schedule: Q01DX009 (ip), vehicle: saline + alcohol) was 110 % of control; the T/C (dose: 1.0 mg/kg/injection, schedule: Q01DX009 (ip), vehicle: saline + alcohol) was 108 % of control; the T/C (dose: 2.0 mg/kg/injection, schedule: Q01DX009 (ip), vehicle: saline + alcohol) was 102 % of control.

With `CCOC(=O)C(c1ccccc1)C(NC(C)=O)(C(=O)OCC)C(=O)OCC` (centres undefined), the T/C under setting [1] was 102 % of control, the T/C under setting [2] is 102 % of control and the T/C under setting [3] was 105 % of control.

With `CN(CCCc1nc2ccccc2[nH]1)N=O`, the T/C is 100 % of control under setting [4], 101 % of control under setting [5] and 100 % of control under setting [6].

Regarding `O=C1/C(=C/N2CCOCC2)CCc2nc(-c3ccccc3)sc21`, the T/C reads like this: (dose: 50.0 mg/kg/injection, schedule: Q01DX005 (ip), vehicle: Klucel (hydroxypropylcellulose) (HPC)) 109 % of control; (dose: 100.0 mg/kg/injection, schedule: Q01DX005 (ip), vehicle: Klucel (hydroxypropylcellulose) (HPC)) 100 % of control; (dose: 200.0 mg/kg/injection, schedule: Q01DX005 (ip), vehicle: Klucel (hydroxypropylcellulose) (HPC)) 100 % of control.

In the case of `CNC(=O)Nc1ccc(C2(C)SCCS2)cc1`, the T/C by setting is: under setting [1], 97 % of control; under setting [2], 87 % of control; under setting [3], 90 % of control.

`NCCCCC(C(=O)NC(Cc1ccc(O)cc1)C(=O)NN)N(C(=O)OCc1ccccc1)C(=O)OCc1ccccc1` (centres undefined): the T/C is 107 % of control (dose: 50.0 mg/kg/injection, schedule: Q01DX005 (ip), vehicle: saline + Tween-80 + alcohol); 104 % of control (dose: 100.0 mg/kg/injection, schedule: Q01DX005 (ip), vehicle: saline + Tween-80 + alcohol); 94 % of control (dose: 200.0 mg/kg/injection, schedule: Q01DX005 (ip), vehicle: saline + Tween-80 + alcohol).

As to `CC12CCC3C(CCC4CC5OC(=O)CC5CC43C)C1CCC2=O` (centres undefined), the T/C was 102 % of control (dose: 50.0 mg/kg/injection, schedule: Q04DX003 (ip), vehicle: Klucel (hydroxypropylcellulose) (HPC)); 107 % of control under setting [4]; 106 % of control under setting [5]; 101 % of control under setting [6].

Regarding `O=C(CCl)N/N=C/c1ccccc1`, the T/C under setting [7] is 106 % of control; the T/C (dose: 50.0 mg/kg/injection, schedule: Q01DX009 (ip), vehicle: saline) is 97 % of control; the T/C under setting [8] is 107 % of control; the T/C under setting [9] was 95 % of control; the T/C under setting [10] was 111 % of control; the T/C under setting [11] was 96 % of control.

`CC1(C)CC1(Cl)S(C)(=O)=O` (centres undefined): the T/C runs as follows: (dose: 100.0 mg/kg/injection, schedule: Q01DX001 (ip), vehicle: saline with Tween-80) 106 % of control; (dose: 200.0 mg/kg/injection, schedule: Q01DX001 (ip), vehicle: saline with Tween-80) 105 % of control; (dose: 400.0 mg/kg/injection, schedule: Q01DX001 (ip), vehicle: saline with Tween-80) 100 % of control.

For the compound `CC(=O)c1cccc2cccc([N+](=O)[O-])c12`, the T/C by setting is: under setting [8], 104 % of control; under setting [10], 90 % of control; (dose: 400.0 mg/kg/injection, schedule: Q01DX009 (ip), vehicle: saline with Tween-80) 104 % of control.

As to `CC(C)C(NC(=O)OCC[P+](c1ccccc1)(c1ccccc1)c1ccccc1)C(=O)O` (centres undefined), the T/C was 116 % of control under setting [7], 103 % of control under setting [8] and 91 % of control under setting [10].

For the compound `O=C(CBr)Nc1c(Cl)cc(Br)cc1Br`, the T/C was 113 % of control under setting [12]; 95 % of control under setting [13]; 98 % of control under setting [14]; 104 % of control under setting [8]; 113 % of control under setting [10].

Turning to `CCOC(=O)CC1NCCc2ccccc21` (centres undefined), the T/C is 103 % of control (dose: 25.0 mg/kg/injection, schedule: Q01DX005 (ip), vehicle: saline + alcohol); 103 % of control (dose: 50.0 mg/kg/injection, schedule: Q01DX005 (ip), vehicle: saline + alcohol); 103 % of control (dose: 100.0 mg/kg/injection, schedule: Q01DX005 (ip), vehicle: saline + alcohol); 101 % of control (dose: 200.0 mg/kg/injection, schedule: Q01DX005 (ip), vehicle: saline + alcohol).

On to `NC(=O)SCC(=O)Nc1ccc2ncccc2c1`, for which the T/C is, setting by setting: (dose: 100.0 mg/kg/injection, schedule: Q01DX009 (ip), vehicle: saline sonified) 100 % of control; (dose: 100.0 mg/kg/injection, schedule: Q04DX003 (ip), vehicle: saline sonified) 100 % of control; (dose: 200.0 mg/kg/injection, schedule: Q01DX009 (ip), vehicle: saline sonified) 113 % of control; (dose: 200.0 mg/kg/injection, schedule: Q04DX003 (ip), vehicle: saline sonified) 100 % of control; (dose: 400.0 mg/kg/injection, schedule: Q01DX009 (ip), vehicle: saline sonified) 90 % of control; (dose: 400.0 mg/kg/injection, schedule: Q04DX003 (ip), vehicle: saline sonified) 104 % of control.

In the case of `[Cl][Pt+2][Cl].[NH-]C1CCCC1.[NH-]C1CCCC1`, the T/C is 156 % of control and 169 % of control (dose: 20.0 mg/kg/injection, schedule: Q01DX009 (ip), vehicle: Klucel (hydroxypropylcellulose) (HPC)); 156 % of control and 168 % of control and 175 % of control (dose: 40.0 mg/kg/injection, schedule: Q01DX009 (ip), vehicle: Klucel (hydroxypropylcellulose) (HPC)); 179 % of control and 193 % of control and 220 % of control (dose: 80.0 mg/kg/injection, schedule: Q01DX009 (ip), vehicle: Klucel (hydroxypropylcellulose) (HPC)); 182 % of control and 233 % of control (dose: 160.0 mg/kg/injection, schedule: Q01DX009 (ip), vehicle: Klucel (hydroxypropylcellulose) (HPC)); 110 % of control and 186 % of control and 229 % of control (dose: 320.0 mg/kg/injection, schedule: Q01DX009 (ip), vehicle: Klucel (hydroxypropylcellulose) (HPC)).

Consider `Oc1ccc(O)cc1`, for which the T/C is 106 % of control (dose: 12.5 mg/kg/injection, schedule: Q01DX009 (ip), vehicle: saline with Tween-80); 113 % of control (dose: 25.0 mg/kg/injection, schedule: Q01DX009 (ip), vehicle: saline with Tween-80); 122 % of control under setting [7]; 150 % of control under setting [8].

On to `CN(C)CCC(C#N)(CCC1CCCCC1)c1ccccc1` (centres undefined), for which the T/C reads like this: (dose: 10.0 mg/kg/injection, schedule: Q01DX009 (ip), vehicle: saline) 103 % of control; (dose: 20.0 mg/kg/injection, schedule: Q01DX009 (ip), vehicle: saline) 104 % of control; (dose: 40.0 mg/kg/injection, schedule: Q01DX009 (ip), vehicle: saline) 103 % of control.

For the compound `CN(C)N=Nc1cccc(C(F)(F)F)c1`, the T/C is, setting by setting: (dose: 25.0 mg/kg/injection, schedule: Q01DX008 (ip), vehicle: saline with Tween-80) 104 % of control; (dose: 50.0 mg/kg/injection, schedule: Q01DX007 (ip), vehicle: saline) 120 % of control; (dose: 50.0 mg/kg/injection, schedule: Q01DX008 (ip), vehicle: saline with Tween-80) 101 % of control; (dose: 100.0 mg/kg/injection, schedule: Q01DX008 (ip), vehicle: saline with Tween-80) 101 % of control.

As to `CN(C)C1C(O)C2Oc3c(cc(O)c4c3C(=O)c3cc5c(c(O)c3C4=O)CCC(C)(O)C5)C(C)(O2)C1O` (centres undefined), the T/C (dose: 12.5 mg/kg/injection, schedule: Q04DX003 (ip), vehicle: other) is 112 % of control; the T/C (dose: 25.0 mg/kg/injection, schedule: Q04DX003 (ip), vehicle: other) is 113 % of control; the T/C (dose: 50.0 mg/kg/injection, schedule: Q04DX003 (ip), vehicle: other) is 118 % of control; the T/C (dose: 100.0 mg/kg/injection, schedule: Q04DX003 (ip), vehicle: other) is 122 % of control.

`Cc1cc(C)nc(NS(=O)(=O)c2ccc(N=c3c4ccccc4n(Cc4ccccc4)c4ccccc34)cc2)n1`: the T/C (dose: 50.0 mg/kg/injection, schedule: Q01DX005 (ip), vehicle: saline with Tween-80) was 98 % of control and the T/C (dose: 100.0 mg/kg/injection, schedule: Q01DX005 (ip), vehicle: saline with Tween-80) was 88 % of control.

Take `C=C[Si](C)(C)c1ccc([Si](C)(C)C=C)cc1`: the T/C by setting is: under setting [12], 107 % of control; under setting [13], 105 % of control; under setting [14], 117 % of control; under setting [9], 97 % of control; under setting [11], 99 % of control.
